For test [1], the target named is T1, Or59b/Orco in ab2A OSN (Drosophila melanogaster, UniProt Q9W1P8).
T1 sequence (Q9W1P8 1-398): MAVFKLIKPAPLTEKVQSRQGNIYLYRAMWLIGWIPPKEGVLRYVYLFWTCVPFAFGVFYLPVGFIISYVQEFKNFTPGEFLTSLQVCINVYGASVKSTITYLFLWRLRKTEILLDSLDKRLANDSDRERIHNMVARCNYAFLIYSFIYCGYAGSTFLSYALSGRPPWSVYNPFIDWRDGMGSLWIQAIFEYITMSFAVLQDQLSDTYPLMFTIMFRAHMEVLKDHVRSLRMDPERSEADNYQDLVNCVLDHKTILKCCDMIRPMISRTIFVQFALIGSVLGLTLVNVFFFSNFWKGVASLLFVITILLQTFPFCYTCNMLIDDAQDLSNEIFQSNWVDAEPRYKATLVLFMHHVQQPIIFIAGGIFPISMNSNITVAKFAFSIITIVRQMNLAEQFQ
T1 sequence (Q9VNB5 1-486 partner): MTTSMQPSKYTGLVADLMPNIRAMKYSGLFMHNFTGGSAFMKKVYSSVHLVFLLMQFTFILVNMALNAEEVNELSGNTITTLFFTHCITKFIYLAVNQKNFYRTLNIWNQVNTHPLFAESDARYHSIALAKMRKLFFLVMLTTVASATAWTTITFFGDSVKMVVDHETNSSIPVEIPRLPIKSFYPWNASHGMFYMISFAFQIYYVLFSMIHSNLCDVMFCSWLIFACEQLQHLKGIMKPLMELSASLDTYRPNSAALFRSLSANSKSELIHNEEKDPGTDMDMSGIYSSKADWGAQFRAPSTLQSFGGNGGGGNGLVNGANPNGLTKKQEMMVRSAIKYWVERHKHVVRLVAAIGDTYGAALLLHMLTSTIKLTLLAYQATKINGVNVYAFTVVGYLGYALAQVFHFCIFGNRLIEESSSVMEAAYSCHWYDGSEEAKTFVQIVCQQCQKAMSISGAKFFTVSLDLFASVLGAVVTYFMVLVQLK
The test is described as follows: single sensillum recording, dose-response. The settings on record: native ab2A neuron; vapour; inhibitor of spontaneous activity. The test is classed as cell-based.

In test [2] the target is T2, Or85a/Orco in ab2B OSN (Drosophila melanogaster, UniProt Q9VHS4).
T2 sequence (Q9VHS4 1-397): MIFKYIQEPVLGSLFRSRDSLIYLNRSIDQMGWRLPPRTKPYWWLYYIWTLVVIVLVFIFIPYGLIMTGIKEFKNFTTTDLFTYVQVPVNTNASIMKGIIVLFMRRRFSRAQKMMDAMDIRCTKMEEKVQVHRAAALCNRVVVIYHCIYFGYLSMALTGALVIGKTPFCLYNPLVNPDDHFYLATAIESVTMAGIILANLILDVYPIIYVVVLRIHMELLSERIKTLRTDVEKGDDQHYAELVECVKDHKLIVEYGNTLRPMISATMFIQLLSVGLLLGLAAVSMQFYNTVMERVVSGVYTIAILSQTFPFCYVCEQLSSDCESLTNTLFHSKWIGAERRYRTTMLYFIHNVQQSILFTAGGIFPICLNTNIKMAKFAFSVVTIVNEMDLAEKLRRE
T2 sequence (Q9VNB5 1-486 partner): T1 sequence (Q9VNB5 1-486 partner)
The test is described as follows: single sensillum recording, dose-response. Conditions: native ab2B neuron; vapour; agonist. Format: cell-based.

As for `CCCCCCCCO` [1-octanol], the Δ spikes/s entry in test [1] is “DEET interfered with inhibition of Or59b/Orco by 1-octen-3-ol, 1-octanol, and linalool”.
Consider `C=CC(O)CCCCC` (stereo not drawn) [1-octen-3-ol], for which the Δ spikes/s entry in test [2] is listed as “activating the ab2B neuron expressing Or85a/Orco (Fig. 1e)”.
As to `C=C[C@](C)(O)CCC=C(C)C` [linalool], the Δ spikes/s result in test [1] was “DEET interfered with inhibition of Or59b/Orco by 1-octen-3-ol, 1-octanol, and linalool”.

These data come from publication PMC3203342 (Nature, 2011).
